From patent US20240417405A1, “Substituted Spiro Derivatives” (Janssen Pharmaceutica NV, priority 2021, published 2024)
Where two headings read alike, the source gives them in different places.

Legend:
MOLM14 cells = assay: Proliferation assay, spheroid-like growth, MOLM14 (MLL-AF9 rearranged); assay type: cell-based, human; details: 8 days, confluence as measure of spheroid size, read-out: spheroid assay_OneTime MOLM14 IC50
Summary of the method: (§1)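 200 MOLM14 or 300 KO-52 cells/well, ultra-low attachment, compound dilutions, DMSO 0.3%; 8 d, 37 °C, 5% CO2. Read: live-cell imaging confluence (spheroid size) day 8. Absolute IC50, min 0%/max 100% fixed, variable slope.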

[1] = biological target: T1, menin/MLL (terbium chelate-labeled menin, FITC-MBM1 peptide) (Homo sapiens, UniProt O00255, T541A); assay: Menin/MLL homogenous time-resolved fluorescence (HTRF) assay; assay type: binding; details: 30 min incubation
T1 construct: Menin (a.a 1-610-6xhis tag)
T1 sequence (O00255 with tags, fused parts or gaps T541A): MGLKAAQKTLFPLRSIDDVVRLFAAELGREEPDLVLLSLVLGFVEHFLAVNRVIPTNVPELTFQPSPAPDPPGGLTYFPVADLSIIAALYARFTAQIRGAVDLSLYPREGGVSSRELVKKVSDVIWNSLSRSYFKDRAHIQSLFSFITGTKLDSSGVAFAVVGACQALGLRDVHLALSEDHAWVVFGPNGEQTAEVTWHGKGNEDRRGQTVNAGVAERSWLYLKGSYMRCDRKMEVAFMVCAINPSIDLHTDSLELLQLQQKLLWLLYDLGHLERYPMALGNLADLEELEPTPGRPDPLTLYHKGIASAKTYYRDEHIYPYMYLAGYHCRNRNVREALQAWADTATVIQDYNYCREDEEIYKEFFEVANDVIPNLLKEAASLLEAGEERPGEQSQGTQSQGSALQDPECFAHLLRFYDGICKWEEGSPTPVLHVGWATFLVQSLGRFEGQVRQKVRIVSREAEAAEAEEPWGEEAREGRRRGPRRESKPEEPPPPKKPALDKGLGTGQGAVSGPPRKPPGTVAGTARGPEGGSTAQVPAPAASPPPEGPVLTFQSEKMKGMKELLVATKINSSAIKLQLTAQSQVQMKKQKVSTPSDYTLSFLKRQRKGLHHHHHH
Summary of the method: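 Tb-cryptate menin (1-610, 6xHis) 200 pM + cmpd, 30 min RT; + FITC-MBM1 75 nM, 15 min RT. 40 mM Tris pH 7.5, 50 mM NaCl, 1 mM DTT, 0.05% Pluronic F-127, 0.5% DMSO. HTRF 520/490; 11-pt 4-fold from 10 μM; IC50 fit.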

KO-52 cells = assay: Proliferation assay, spheroid-like growth, KO-52 (MLL wildtype control cell line); assay type: cell-based, human; details: KO-52 control cells, 8 days, confluence as measure of spheroid size, read-out: spheroid assay_OneTime KO-52 IC50
Summary of the method: as §1

IC50 (MOLM14 cells; Homo sapiens, MOLM-14, 192 h) [nM]	IC50 [1] [nM]	IC50 (MOLM14 cells) [nM]	SMILES	IC50 (KO-52 cells; Homo sapiens, 192 h) [nM]	IC50 (KO-52 cells) [nM]
200	0.8	–	CC(=O)N1CCN([C@H]2C[C@@H](C(C(C)C)N3CC4(CCN(c5ncnnc5Oc5ccc(F)cc5-c5cncc(C#N)c5C5CC5)C4)C3)C2)CC1 (stereo partly drawn) [Compound 144]	12300	–
100	0.8	–	CC(C)C(C1CC2(CCN2CC2COC2)C1)N1CC2(CCN(c3ncnnc3Oc3ccc(F)cc3-c3cncnc3C3CC3)C2)C1 (stereo not drawn) [Compound 156]	7960	–
4	0.1	–	CC(C)[C@H]([C@H]1C[C@@H](N2CCC(C)(C(=O)N(C)C)C2)C1)N1CC2(CCN(c3ncnnc3Oc3ccc(F)cc3-c3cncnc3C3CC3)C2)C1 (stereo partly drawn) [Compound 161]	3360	–
110	0.1	–	CC(C)[C@H]([C@H]1C[C@H](N2CCC(C)(C(=O)N(C)C)C2)C1)N1CC2(CCN(c3ncnnc3Oc3ccc(F)cc3-c3cncnc3C3CC3)C2)C1 (stereo partly drawn) [Compound 162]	6400	–
< 2	0.1	–	CC(C)[C@H]([C@H]1C[C@@H](N2C[C@H]3COC[C@H]3C2)C1)N1CC2(CCN(c3ncnnc3Oc3ccc(F)cc3-c3cnc(C#N)nc3C3CC3)C2)C1 [Compound 167]	4110	–
53	0.6	–	CC(C)[C@@H]([C@H]1C[C@@H](N2C[C@H]3COC[C@H]3C2)C1)N1CC2(CCN(c3ncnnc3Oc3ccc(F)cc3-c3cnc(C#N)nc3C3CC3)C2)C1 [Compound 168]	2590	–
80	0.5	–	CC(=O)N[C@H]1C[C@@H](C(C(C)C)N2CC3(CCN(c4ncnnc4Oc4ccc(F)cc4-c4nccnc4C4CC4)C3)C2)C1 (stereo partly drawn) [Compound 176]	10400	–
73	0.4	–	CC(=O)N[C@H]1C[C@@H](C(C(C)C)N2CC3(CCN(c4ncnnc4Oc4ccc(F)cc4-c4ncncc4C4CC4)C3)C2)C1 (stereo partly drawn) [Compound 179]	12600	–
10	0.2	–	CC(C)C([C@H]1C[C@@H](NC(=O)C2CC2)C1)N1CC2(CCN(c3ncnnc3Oc3ccc(F)cc3-c3cnncc3C3CC3)C2)C1 (stereo partly drawn) [Compound 184]	600	–
65	0.8	–	CC(=O)N[C@H]1C[C@@H](C(C(C)C)N2CC3(CCN(c4ncnnc4Oc4ccc(F)cc4-c4cnncc4C4CC4)C3)C2)C1 (stereo partly drawn) [Compound 187]	> 15000	–
520	0.2	–	CC(=O)N[C@H]1C[C@@H](C(C(C)C)N2CC3(CCN(c4ncnnc4Oc4ccc(F)cc4-c4cccc(=O)n4C4CC4)C3)C2)C1 (stereo partly drawn) [Compound 188]	> 15000	–
140	0.4	–	CC(C)C([C@H]1C[C@@H](NC(=O)C2CC2)C1)N1CC2(CCN(c3ncnnc3Oc3ccc(F)cc3-c3cccc(=O)n3C3CC3)C2)C1 (stereo partly drawn) [Compound 189]	> 15000	–
50	0.2	–	CC(C)C([C@H]1C[C@@H](Nc2cncnc2)C1)N1CC2(CCN(c3ncnnc3Oc3ccc(F)cc3-c3cncnc3C3CC3)C2)C1 (stereo partly drawn) [Compound 193]	> 15000	–
450	0.9	–	CC(C)C([C@H]1C[C@@H](Nc2ccn(C)n2)C1)N1CC2(CCN(c3ncnnc3Oc3ccc(F)cc3-c3cncnc3C3CC3)C2)C1 (stereo partly drawn) [Compound 194]	> 15000	–
510	1.3	–	CC(C)C(C1CC(O)(c2cnn(C)c2)C1)N1CC2(CCN(c3ncnnc3Oc3ccc(F)cc3-c3cncnc3C3CC3)C2)C1 (stereo not drawn) [Compound 195]	> 15000	–
> 940	13.6	–	CC(=O)N[C@H]1C[C@@H](C(C(C)C)N2CC3(CCN(c4ncnnc4Oc4ccc(F)cc4-c4c[nH]c(=O)nc4C4CC4)C3)C2)C1 (stereo partly drawn) [Compound 196]	> 15000	–
250	0.3	–	CC(C)C(C1CC2(CCN2)C1)N1CC2(CCN(c3ncnnc3Oc3ccc(F)cc3-c3cncnc3C3CC3)C2)C1 (stereo not drawn) [Compound 198]	> 15000	–
300	0.8	–	CC(C)C(C1CCN(CC2COC2)CC1)N1CC2(CCN(c3ncnnc3Oc3ccc(F)cc3-c3ncncc3C3CC3)C2)C1 (stereo not drawn) [Compound 203]	1860	–
21	0.1	–	CC(C)C([C@H]1C[C@@H](NC(=O)CCN(C)C)C1)N1CC2(CCN(c3ncnnc3Oc3ccc(F)cc3-c3cncnc3C3CC3)C2)C1 (stereo partly drawn) [Compound 302]	14100	–
32	0.2	–	CC(C)C([C@H]1C[C@@H](N2CCC3(COC3)C2)C1)N1CC2(CCN(c3ncnnc3Oc3ccc(F)cc3-c3cncnc3C3CC3)C2)C1 (stereo partly drawn) [Compound 326]	9180	–
5	0.2	–	CC(C)C([C@H]1C[C@@H](N2CCC3(CCO3)CC2)C1)N1CC2(CCN(c3ncnnc3Oc3ccc(F)cc3-c3cncnc3C3CC3)C2)C1 (stereo partly drawn) [Compound 327]	> 15000	–
–	0.137	2.7	CC(=O)N1CC2CN([C@H]3C[C@@H]([C@H](C(C)C)N4CC5(CCN(c6ncnnc6Oc6ccc(F)cc6-c6cnc(C)nc6C6CC6)C5)C4)C3)CC2C1 (stereo partly drawn) [Compound 377]	4840	–
2.9	0.08	–	CC(C)C([C@H]1C[C@@H](Nc2ccnc(N)n2)C1)N1CC2(CCN(c3ncnnc3Oc3ccc(F)cc3-c3cncnc3C3CC3)C2)C1 (stereo partly drawn) [Compound 434]	2000	–
35	0.3	–	COc1ncc(-c2cc(F)ccc2Oc2nncnc2N2CCC3(C2)CN(C(C(C)C)[C@H]2C[C@@H](NC(C)=O)C2)C3)c(C2CC2)n1 (stereo partly drawn) [Compound 500]	10200	–
–	29.8	40	C[C@H]([C@H]1C[C@@H](NC(=O)OC(C)(C)C)C1)N1CC2(CCN(c3ncnnc3Oc3ccc(F)cc3-c3cncnc3C3CC3)C2)C1 [Compound 512a]	–	310
–	0.589	> 940	C[C@@H]([C@H]1C[C@@H](NC(=O)OC(C)(C)C)C1)N1CC2(CCN(c3ncnnc3Oc3ccc(F)cc3-c3cncnc3C3CC3)C2)C1 [Compound 512b]	–	5810
